Measurements as given in PubChem BioAssay (NCI).
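Method: 48-hour compound exposure of cells in 96-well plates, five concentrations, linear interpolation of endpoints. Here, GI50 denotes the concentration required for 50% inhibition of growth. TGI marks complete inhibition of growth.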

Columns and labels:
Assay in all cases: growth of human tumour cells (NCI), 48 h
BT-549 breast = system: BT-549 breast
DU-145 prostate = system: DU-145 prostate
HS 578T breast = system: HS 578T breast
MCF7 breast = system: MCF7 breast
PC-3 prostate = system: PC-3 prostate
T-47D breast = system: T-47D breast

Compound | GI50 (BT-549 breast) [µM] | TGI (BT-549 breast) [µM] | GI50 (DU-145 prostate) [µM] | TGI (DU-145 prostate) [µM] | GI50 (HS 578T breast) [µM] | TGI (HS 578T breast) [µM] | GI50 (MCF7 breast) [µM] | TGI (MCF7 breast) [µM] | GI50 (PC-3 prostate) [µM] | TGI (PC-3 prostate) [µM] | GI50 (T-47D breast) [µM] | TGI (T-47D breast) [µM]
CCCCn1c(-c2ccc(C(=O)O/N=C(\N)c3ccc4c(c3)OCO4)cc2)nc(-c2ccccc2)c1-c1ccccc1 | 2.61 | 7.84 | 1.65 | 3.21 | 1.88 | 5.09 | 2.38 | 8.83 | 2.59 | > 100 | 1.85 | 4.95
C=C1C(=O)O[C@H]2[C@H]1CC/C(COC(=O)NCC(C)c1ccc(CC(C)C)cc1)=C\CC[C@@]1(C)O[C@@H]21 (stereo not given in full) | 0.775 | 2.25 | 2.93 | 6.95 | 1.53 | 15 | 0.902 | 4.18 | 0.691 | 1.76 | 2.2 | 7.83
CC(C)CCC1(CCN)C(=O)NC(=O)NC1=O | – | > 100 | – | > 100 | – | > 100 | – | > 100 | – | > 100 | – | > 100
COc1ccc2c(c1)/C(=C/c1cc(OC)c(OC)c(OC)c1)C(=O)N2 | 1.37 | > 100 | 0.655 | > 100 | 0.362 | 12.8 | 0.35 | > 100 | 0.364 | > 100 | 0.385 | –
O=C(O)c1ccccc1/C=N/N=C1c2ccccc2-c2ccccc21 | – | > 100 | – | > 100 | – | 34.7 | – | > 100 | – | 83.4 | – | > 100
C=C1C[C@@H]2CC[C@@]34C[C@H]5O[C@H]6[C@@H](O3)[C@H]3O[C@H](CC[C@@H]3O[C@H]6[C@@H]5O4)CC(=O)C[C@@H]3[C@@H](OC)[C@@H](C[C@H](O)CN)O[C@H]3C[C@H]3O[C@@H](CC[C@@H]1O2)C[C@@H](C)C3=C | < 0.0167 | > 37.5 | < 0.01 | > 100 | < 0.01 | > 100 | < 0.01 | > 100 | < 0.01 | – | – | –
O=c1c(F)cn(Cc2ccccc2CCl)c(=O)n1Cc1ccccc1CCl | 1.41 | 2.91 | 1.79 | 3.42 | 1.92 | 6.93 | 1.16 | 6.11 | 2.54 | 8.83 | 1.57 | 4.11
CC(NC(=O)N(C)C)NC(=O)N(C)C | – | – | – | > 10 | – | > 10 | – | > 10 | – | > 10 | – | > 10
CCNC(=O)c1noc(-c2cc(C(C)C)c(O)cc2O)c1-c1ccc(CN2CCOCC2)cc1 | 8.36 | 30.4 | < 0.0222 | 21.1 | 2.47 | 56.9 | < 0.0194 | > 55 | 0.0648 | 66.6 | 0.0382 | 47.8
CC(=O)O[C@H]1CCc2c(cc(N)c3c2C(=O)C[C@]2(C)C([C@H](C)CCCC(C)C)CCC32C)C1(C)C (stereo not given in full) | – | > 100 | – | > 100 | – | > 100 | – | > 100 | – | > 100 | – | > 100
CN(C)C(=O)O[C@H]1CN[C@H](C#Cc2cc3ncnc(Nc4ccc(OCc5cccc(F)c5)c(Cl)c4)c3s2)C1 | 4 | 10.2 | 9.76 | > 25 | 10.4 | > 25 | 14.6 | > 25 | 5.44 | > 25 | 2.98 | > 25
COc1cnc2c(c1)C(=O)c1c-2n(CCCN2CCN(C)CC2)c(=O)c2cc([N+](=O)[O-])ccc12 | – | – | 0.22 | 0.587 | 14.5 | 31 | 0.0162 | 1.2 | – | – | 1.77 | 4.01
O=c1oc2ccc(I)cc2c(=O)n1-c1ccc(Cl)cc1F | 1.03 | 3.8 | 2.28 | 21.7 | 0.688 | 8.66 | 2.36 | 36.5 | 2 | 7.11 | 1.26 | 6.44
O=C(Nc1ccc(Cl)c(Cl)c1)NS(=O)(=O)c1cnccc1Oc1ccc(F)cc1 | 6.84 | 40.4 | 4.19 | 28.8 | 3.25 | > 100 | 2.37 | 7.8 | 3.25 | > 100 | 2.8 | 8.54
COC(=O)C(/C(=N\O)C(=O)Nc1cccc(Cl)c1C)c1cnc2ccccc2n1 (stereo not given) | – | > 100 | – | > 100 | – | – | – | > 100 | – | > 100 | – | > 100
Oc1ccccc1-c1nn(CNc2ccccc2Cl)c(=S)o1 | > 100 | > 100 | – | – | > 100 | > 100 | 40 | > 100 | 99 | > 100 | 13.5 | 74.9
